Here are results for 29 compounds from PubChem BioAssay (NCI).

The structures appear in SMILES notation.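 Assay format: 96-well plates, 48-hour exposure. Abbreviation: GI50, concentration required for 50% inhibition of growth. TGI: total growth inhibition.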

Test in all cases: NCI tumour cell line growth inhibition, 48 h
Assay [1] deals with ACHN renal.
Assay [2] has as its system BT-549 breast.
Assay [3] deals with A498 renal.
Assay [4] deals with U251 CNS.
The test system of assay [5] is HCT-116 colon.
For assay [6], the system named is SK-MEL-28 melanoma.
Assay [7] has as its system HT29 colon.
Assay [8] has as its system MALME-3M melanoma.
Assay [9] concerns SF-295 CNS.
Assay [10] deals with T-47D breast.

In the case of `NC(=O)C(N)Cc1ccc(O)cn1` (stereo not drawn), the TGI in [1], in assay [2], in assay [3], in assay [4], in assay [5] and in [6] was more than 100 µM in each case. In addition, the TGI in [7], in assay [8] and in assay [9] was more than 100 µM throughout.

Consider `COc1ccc(C2CC(=O)CC(c3ccc(OC)cc3)C23C(=O)NC(=O)NC3=O)cc1` (stereo not drawn), for which the TGI in assay [1] was 78.1 µM; in [2], more than 100 µM; in assay [4] it was more than 100 µM; in assay [5], more than 100 µM; in [6], 43.7 µM; in assay [7], more than 100 µM. In addition, the TGI in assay [8] was 73 µM; in [9], more than 100 µM.

Regarding `CCC(C)(C)/C(CC(O)(C(F)(F)F)C(F)(F)F)=N\O`, the TGI in [1], in assay [3], in assay [10], in assay [4], in [5] and in assay [6] was more than 100 µM throughout. Also, the TGI in [7], in [8] and in [9] was more than 100 µM in each case.

Consider `CN(c1ccc(Cl)cc1)S(=O)(=O)c1cccc([N+](=O)[O-])c1`, for which the TGI in assay [1], in assay [2], in assay [4], in assay [5], in [6] and in [7] was more than 100 µM in each case. In addition, the TGI in [8] and in [9] was more than 100 µM throughout.

On to `Cc1ccc(S(=O)(=O)N/N=C/C(=C/c2ccc(Cl)cc2)CC(/C=N/NS(=O)(=O)c2ccc(C)cc2)=C\c2ccc(Cl)cc2)cc1`, for which the TGI worked out at 19.1 µM in assay [1]; 29 µM in assay [3]; 19.2 µM in assay [10]; 17.2 µM in assay [4]; 18.9 µM in [5]; 20.2 µM in [6]. Moreover, the TGI came out at 24.1 µM in assay [7], 22 µM in [8] and 55 µM in assay [9].

As to `N#CSC#Cc1ccc(C#CSC#N)cc1`, the TGI came out at 30.1 µM in [1]; 32.4 µM in assay [2]; 36.8 µM in [3]; 41.8 µM in assay [4]; 38.7 µM in assay [5]; 57.2 µM in [6]. Also, the TGI turned out to be 42.1 µM in assay [7], 51.9 µM in [8] and 43.4 µM in assay [9].

As to `O/N=C1/COC(C(F)(F)F)(C(F)(F)F)C1`, the TGI in assay [1], in [3], in assay [10], in assay [4], in assay [5] and in assay [6] was more than 100 µM throughout. Besides, the TGI in assay [7], in assay [8] and in [9] was more than 100 µM in each case.

As for `CC(=O)NC1C(OCc2ccccc2)OC(CO)C(O)C1OC(C)C(=O)NC(C)C(=O)NC(CCC(=O)NCCCNc1c2ccccc2nc2cccc([N+](=O)[O-])c12)C(N)=O` (stereo not drawn), the TGI in assay [1] was 6.9 µM; in assay [3] it was 6.11 µM; in assay [10], more than 100 µM; in [4], 12.8 µM; in [5], 2.38 µM; in assay [6], 8.04 µM. Besides, the TGI is more than 100 µM in assay [7], 7.61 µM in assay [8] and 35.2 µM in assay [9].

For the compound `Cc1cc(C)c(S(=O)(=O)N2CCCN(S(=O)(=O)c3c(C)cc(C)cc3C)OCCCON(S(=O)(=O)c3c(C)cc(C)cc3C)CCCN(S(=O)(=O)c3c(C)cc(C)cc3C)OCCCO2)c(C)c1`, the TGI in assay [1], in assay [2], in assay [4], in assay [5], in assay [6] and in [7] was more than 100 µM each time. Further, the TGI in assay [8] and in [9] was more than 100 µM in each case.

As to `COc1cc(C[S+]2CCCC2)c(SC)cc1C[S+]1CCCC1`, the TGI in assay [1], in assay [3], in assay [4], in assay [5], in [6] and in [7] was more than 100 µM throughout. The TGI in assay [8] and in [9] was more than 100 µM throughout.

In the case of `O=C(c1ccc(O)cc1)C1c2c3c(cc(O)c2C(c2ccc(O)cc2)C1c1cc(O)cc(O)c1)OC(c1ccc(O)cc1)C3c1cc2c(cc1O)OC(c1ccc(O)cc1)C2c1cc(O)cc(O)c1` (stereo not drawn), the TGI in assay [1], in assay [3], in assay [4], in assay [5], in assay [6] and in assay [8] was more than 12.5 µM in each case.

Consider `CCC1(CC)SCc2nc3ccccc3n21`, for which the TGI in assay [1] is more than 100 µM; in [3] it was more than 100 µM; in assay [10], more than 100 µM; in assay [4] it was more than 100 µM; in [5] it was 73.4 µM; in [6], more than 100 µM. For the same compound, the results for the TGI in assay [7], in assay [8] and in [9] were more than 100 µM, 94.8 µM and more than 100 µM, respectively.

With `CC1CC(N)=Nc2ccccc2N1` (stereo not drawn), the TGI in assay [1], in assay [2], in assay [4], in assay [5], in assay [6] and in assay [7] was more than 100 µM in each case. Further, the TGI in assay [8] and in assay [9] was more than 100 µM in each case.

In the case of `O=S(=O)(c1ccccc1)n1c2cc3cccnc3nc2c2cccnc21`, the TGI in assay [1], in assay [2], in [3], in [4], in assay [5] and in assay [6] was more than 100 µM each time. For the same compound, the TGI in [7], in assay [8] and in assay [9] was more than 100 µM throughout.

Turning to `c1ccc2sc(C3(N4CCCC4)CCCCCC3)cc2c1`, the TGI came out at 60.7 µM in assay [1]; 51.9 µM in [2]; 32.5 µM in assay [3]; 30.9 µM in [4]; 27.7 µM in assay [5]; 37.9 µM in [6]. Further, the results for the TGI in assay [7] and in assay [9] were 19.3 µM and 30.4 µM, respectively.

On to `C[C@]12CC[C@H](O)CC1=CC[C@@H]1[C@@H]2CC[C@]2(C)C(=O)[C@@H](N3CCOCC3)C[C@@H]12`, for which the TGI in [1], in assay [3], in assay [10], in assay [4], in assay [5] and in [6] was more than 100 µM each time. In addition, the TGI in assay [7], in assay [8] and in assay [9] was more than 100 µM in each case.

Consider `COc1ccc(C2S/C(=C\c3ccccc3O)C(=O)N2NC(=O)Cc2ccccc2)cc1` (stereo not drawn), for which the TGI in [1], in assay [3], in [4], in assay [5], in assay [6] and in [7] was more than 100 µM each time. In addition, the TGI in assay [8] and in [9] was more than 100 µM throughout.

In the case of `CC(=O)OCCn1cnc2nc(Nc3ccccc3)nc(Cl)c21`, the TGI in [1], in [3], in assay [10], in assay [4], in [5] and in assay [6] was more than 100 µM in each case. Besides, the TGI in [7], in assay [8] and in [9] was more than 100 µM in each case.

As for `S=C(c1c[nH]c2ccccc12)N1CCOCC1`, the TGI in [1], in [2], in assay [3], in [4], in assay [5] and in [6] was more than 100 µM in each case. The TGI in [7], in assay [8] and in [9] was more than 100 µM in each case.

As for `C[C@]12C=CC(=O)C=C1CC[C@H]1[C@@H]3C[C@@H](O)[C@](O)(C(=O)CO)[C@@]3(C)C[C@H](O)[C@@]12F`, the TGI in assay [1], in assay [3], in assay [4], in assay [5], in [6] and in assay [7] was more than 100 µM each time. The TGI in assay [8] and in [9] was more than 100 µM in each case.

For `COc1ccc(C(=O)Sc2c(-c3ccccc3)c(=O)n(-c3ccccc3)c(=S)n2-c2ccccc2)cc1`, the TGI was more than 100 µM in [1]; 44 µM in assay [3]; more than 100 µM in [10]; more than 100 µM in assay [4]; more than 100 µM in [5]; more than 100 µM in assay [6]. Moreover, the TGI in assay [7], in assay [8] and in [9] was more than 100 µM each time.

With `O=C1OC[C@@H]2Cc3cc4c(cc3[C@H](c3ccc5c(c3)OCO5)[C@@H]12)OCO4`, the TGI in assay [1], in [2], in [4], in assay [5], in assay [6] and in [7] was more than 25 µM in each case. For the same compound, the TGI in assay [8] and in assay [9] was more than 25 µM each time.

On to `C=C1CC(c2ccc(OCCCN3C(=O)c4ccccc4C3=O)c(OC)c2)OC1=O` (stereo not drawn), for which the TGI in [1] amounted to 18.7 µM; in assay [3], 6.83 µM; in assay [10], 9.96 µM; in assay [4], 23.5 µM; in assay [5] it was 6.6 µM; in [6], 9.34 µM. Further, the TGI in [7] was 13.3 µM; in assay [8], 12.4 µM; in assay [9], 26.3 µM.

For the compound `Cc1ccc2c(n1)C(=O)c1[nH]c3ccccc3c1C2=O`, the GI50 in assay [1] was 2.1 µM; in assay [3] it was 1.38 µM; in assay [10] it was 0.537 µM; in assay [4], 2.93 µM; in [6], 3.87 µM; in assay [7], 3.05 µM. The GI50 in assay [8] is 0.208 µM; in assay [9], 0.761 µM. Besides, the TGI was 18.6 µM in assay [1]; 2.76 µM in assay [3]; 17.9 µM in assay [10]; more than 100 µM in assay [4]; more than 100 µM in [6]; more than 100 µM in assay [7]. Further, the TGI in assay [8] turned out to be 1.07 µM; in assay [9] it was 2.05 µM.

For `O=[N+]([O-])c1ccccc1S(=O)(=O)c1cc(Cl)cc2c1NCCC2`, the TGI in assay [1], in assay [2], in assay [3], in assay [5], in [6] and in [7] was more than 100 µM each time. In addition, the TGI in assay [8] is 74.1 µM; in [9], more than 100 µM.

As for `CNC(=S)N(C)C(=S)Nn1c(=O)c(C)nn(C)c1=S`, the TGI in [1], in [3], in [4], in [5], in assay [6] and in assay [7] was more than 100 µM throughout. The TGI in [9] was more than 100 µM.

With `CC(=O)c1c2c(cc3c1CC1(Cc4ccccc4C1=O)C3)CCC2` (stereo not drawn), the TGI in assay [1] was more than 100 µM; in assay [3], more than 100 µM; in assay [10], 49.3 µM; in assay [4] it was more than 100 µM; in assay [5], 66.6 µM; in assay [6], 68.4 µM. Besides, the TGI in assay [7] was more than 100 µM; in assay [8] it was 51.5 µM; in assay [9] it was more than 100 µM.

With `CC1=C(C#N)C(C#N)(C#N)C(NN(C)C)C1` (stereo not drawn), the TGI in assay [1] was 34.6 µM; in assay [3], 43 µM; in assay [10] it was 27.8 µM; in [4], more than 100 µM; in [5] it was 29.2 µM; in assay [6] it was more than 100 µM. The TGI in assay [7] is 38.3 µM; in assay [8], 98.2 µM; in assay [9] it was 79.1 µM.

Turning to `COCCOCc1nc(C#N)c(N)o1`, the TGI in assay [1], in assay [3], in assay [10], in [4], in assay [5] and in [6] was more than 100 µM each time. Also, the TGI in [7], in assay [8] and in assay [9] was more than 100 µM throughout.
